Values quoted from earlier work in US8288391B2, “Pyrazinoylguanidine compounds for use as taste modulators” (Parion Sciences, Inc., priority 2007, dated 2012).

Biological target: T1, ENaC (Rattus norvegicus, UniProt P37089+P37090+P37091)
T1 construct: receptor cells in taste buds and some surrounding non-taste epithelia) through apical membrane ENaC; host or cells: rat in vivo: taste nerve (chorda tympani) response, with endogenous channel of lingual taste receptor cells
T1 sequence (P37089 1-698): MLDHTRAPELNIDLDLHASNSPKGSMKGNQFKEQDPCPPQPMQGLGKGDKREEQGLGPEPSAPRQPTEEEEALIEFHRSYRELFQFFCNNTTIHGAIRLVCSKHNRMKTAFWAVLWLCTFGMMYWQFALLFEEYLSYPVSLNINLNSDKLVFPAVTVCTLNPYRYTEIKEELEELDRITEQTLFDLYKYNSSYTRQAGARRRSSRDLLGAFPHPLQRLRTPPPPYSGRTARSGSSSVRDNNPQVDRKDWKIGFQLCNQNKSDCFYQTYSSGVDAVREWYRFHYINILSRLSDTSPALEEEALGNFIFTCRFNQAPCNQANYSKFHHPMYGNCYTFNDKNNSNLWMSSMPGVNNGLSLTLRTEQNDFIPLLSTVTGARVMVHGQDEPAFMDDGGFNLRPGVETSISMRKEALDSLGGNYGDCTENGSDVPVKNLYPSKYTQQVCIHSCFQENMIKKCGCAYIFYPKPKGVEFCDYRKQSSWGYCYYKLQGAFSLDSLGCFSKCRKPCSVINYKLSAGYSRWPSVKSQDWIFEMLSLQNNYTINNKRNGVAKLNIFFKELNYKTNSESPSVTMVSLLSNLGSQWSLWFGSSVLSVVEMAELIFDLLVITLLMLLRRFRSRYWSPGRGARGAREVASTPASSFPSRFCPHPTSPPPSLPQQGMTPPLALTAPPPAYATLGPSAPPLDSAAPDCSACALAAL
T1 sequence (P37090 1-638): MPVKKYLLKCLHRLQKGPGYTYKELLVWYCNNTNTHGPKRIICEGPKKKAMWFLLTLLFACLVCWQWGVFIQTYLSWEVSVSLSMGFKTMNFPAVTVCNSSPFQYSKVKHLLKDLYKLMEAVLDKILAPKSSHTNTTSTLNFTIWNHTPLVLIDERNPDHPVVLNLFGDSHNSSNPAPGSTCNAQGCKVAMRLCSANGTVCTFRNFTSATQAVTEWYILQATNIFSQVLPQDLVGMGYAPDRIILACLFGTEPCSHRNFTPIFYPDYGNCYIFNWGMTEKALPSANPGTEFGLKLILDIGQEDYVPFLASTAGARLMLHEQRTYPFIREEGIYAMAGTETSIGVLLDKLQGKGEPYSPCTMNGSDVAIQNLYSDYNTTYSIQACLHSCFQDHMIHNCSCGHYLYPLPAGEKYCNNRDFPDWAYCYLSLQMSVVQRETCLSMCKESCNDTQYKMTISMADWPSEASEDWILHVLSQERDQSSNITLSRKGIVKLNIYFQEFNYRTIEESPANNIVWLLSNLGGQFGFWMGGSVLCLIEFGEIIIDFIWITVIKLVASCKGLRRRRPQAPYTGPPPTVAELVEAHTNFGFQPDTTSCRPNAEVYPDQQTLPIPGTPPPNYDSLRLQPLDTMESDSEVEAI
T1 sequence (P37091 1-650): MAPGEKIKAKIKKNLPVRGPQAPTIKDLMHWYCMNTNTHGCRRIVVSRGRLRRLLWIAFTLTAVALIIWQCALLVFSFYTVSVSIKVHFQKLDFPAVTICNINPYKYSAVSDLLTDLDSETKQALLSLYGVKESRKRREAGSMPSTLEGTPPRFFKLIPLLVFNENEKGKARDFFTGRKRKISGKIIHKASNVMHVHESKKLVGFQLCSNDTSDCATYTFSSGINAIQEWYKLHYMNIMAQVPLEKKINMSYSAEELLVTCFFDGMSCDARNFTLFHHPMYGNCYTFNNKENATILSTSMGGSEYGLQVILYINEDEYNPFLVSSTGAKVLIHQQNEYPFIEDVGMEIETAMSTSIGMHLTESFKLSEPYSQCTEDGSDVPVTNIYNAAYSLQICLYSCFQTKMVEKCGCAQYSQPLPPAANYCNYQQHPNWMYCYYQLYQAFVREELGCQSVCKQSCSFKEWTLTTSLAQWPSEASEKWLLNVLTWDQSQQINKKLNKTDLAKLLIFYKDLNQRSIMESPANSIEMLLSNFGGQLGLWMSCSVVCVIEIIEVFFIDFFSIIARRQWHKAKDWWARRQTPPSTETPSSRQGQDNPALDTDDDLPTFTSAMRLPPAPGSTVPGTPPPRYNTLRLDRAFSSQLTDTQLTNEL
Settings: rats; 100 mM NaCl; share of total taste response

amiloride-sensitive part of the total response to NaCl: 75%-80%
SMILES: N=C(N)NC(=O)c1nc(Cl)c(N)nc1N [amiloride]
